From patent US9913832B2, “Accelerating thrombus resolution through augmentation of p53 activity” (priority 2009, dated 2018)
Entries after “also recorded” stand apart in the source; their conditions may differ.

Experiments:
normal (wildtype) mice = assay: mouse model of thrombus resolution (vena caval ligation), normal mice; format: in vivo; settings: 25 mg/kg body weight by daily injection, versus saline, FIG. 8
Excerpt: In an effort to develop pharmacological and molecular therapy to accelerate thrombus resolution, the function of the p53 gene was studied in an in vivo model of thrombus resolution. In this mouse model (vena caval ligation) the thrombus shrinks between day 4 and day 12 by about 50% as defined by change in thrombus weight. It was noted that the expression of the p53 protein is increased in thrombus resolution.
In order to determine whether augmentation of normal p53 function could accelerate thombus resolution wildtype mice were treated with the p53 activator quinacrine (25 mg/kg body weight, by daily injection). Quinacrine is known to increase p53 levels by stabilizing the p53 protein and preventing its normal degradation inside cells.
(§1) The well-established rodent model of thrombus resolution was used to define a role for the p53 gene in this process. In this model, a mouse is anesthetized, the abdomen is opened with standard sterile surgical technique and the vena cava (the largest abdominal vein) is ligated in the abdomen with a suture immediately below the level of the renal veins.
The weight of the thrombus decreases with time, and this change in weight reflects the thrombus resolution process in this model. […]

[1] = system: mice lacking the p53 gene; assay: mouse model of thrombus resolution (vena caval ligation), mice lacking the p53 gene; format: in vivo; settings: quinacrine versus control, FIG. 9, last two columns
Excerpt: To determine whether the beneficial effect on thrombus resolution of quinacrine was due to activation of the p53 gene and not some other unknown effect of quinacrine on thrombus resolution the quinacrine experiment was repeated in mice that lack p53 (FIG. 2).
as §1
To determine if pharmacologic activation of the p53 gene beyond its usual activation by thrombus resolution might accelerate thrombus resolution, normal mice were treated with the p53 activator quinacrine (25 mg/kg body weight, by daily injection) or saline as a control, and then subjected to vena caval ligation as described above. […] To determine if this effect of quinacrine was actually due to p53 activation, this experiment was repeated in animals lacking the p53 gene.

experimental thrombi = settings: literature studies of exogenous therapy on formed or established thrombus; cited from earlier work

| Molecule | thrombus resolution as determined by thrombus weight on day 12 (normal (wildtype) mice) | thrombus resolution / thrombus size at day 12 [1] | thrombus resolution in experimental animal models (experimental thrombi) |
| --- | --- | --- | --- |
| CCN(CC)CCCC(C)Nc1c2ccc(Cl)cc2nc2ccc(OC)cc12 (stereo not shown) [quinacrine] | improved thrombus resolution; also recorded: decreased thrombus weight | absent; also recorded: no difference in thrombus size |  |
| MCP-1: cytokine macrophage chemotactic factor |  |  | does improve experimental thrombus resolution |
| low molecular weight heparin |  |  | no improvement in the resolution of an established thrombus |
